One experiment has as its system blast-injured mice. The experiment in a line: Barnes maze after blast-mediated TBI. Format: in vivo. To be noted: for time in escape quadrant, probe test: treatment immediately after blast-injury, 10 mg/kg/d IP, FIG. 21A. An excerpt:
Barnes maze: The Barnes maze evaluates cognition based on time spent in the escape area. There are 20 holes around the periphery of the round tabletop, one of which contains an escape chamber (shown in red), into which the animal is motivated to seek shelter after being placed on the open tabletop. The escape area is defined as 5 cm around the hole, and time spent in the escape area during the probe test is used to measure hippocampal-dependent memory, which is dependent on visual cue around the table.
To test the neuroprotective efficacy of P7C3-A20 and P7C3-S243, we employed a model of blast-induced TBI in which the blast wave is propagated following rupture of a mylar membrane (Mohan et al., 2013). Briefly, anesthetized mice are placed in an enclosed blast chamber constructed from an air tank partitioned into two sides. A sealed mylar membrane covers a small port between the two halves of the tank. When the pressure is increased in the side without the mouse, the membrane ruptures at ≈22 kilopascal (kPa), generating a blast wave that travels through the mouse's head. The head of the mouse is untethered and located in a padded holder, while the body is shielded from the blast by a metal tube. In all cases, the left side of the head faces the blast wave. As previously reported (Mohan et al., 2013), the intensity of the blast wave in our system is 149.8±2.09 kPa, and the duration of the total pressure (Blast wave+wind gust) is ≈10-15 milliseconds.
The Barnes maze consists of a circular table with holes equally spaced around the perimeter. One of these holes contains an escape cup, such that the mouse can enter the hole and hide in the cup to avoid exposure on the table. Testing in the Barnes maze was initiated 7 days after blast-injury. To begin, mice underwent 4 days of training, during which time they were allowed to find and enter the escape hole, and rest in the protective cup. By the 4th day of training, mice typically learn how to rapidly locate the escape hole, based on visual cues permanently positioned around the table throughout training. After 4 days of training, the cup is removed and the ability of the mouse to remember where the cup was previously located is assessed in the ‘probe test.’ Memory is reflected by measuring the amount of time the mouse spends in the area around where the cup was previously located.
Blast-Mediated Traumatic Brain Injury. Mice were anesthetized with ketamine/xylazine ([…] respectively) and placed in an enclosed blast chamber (50 cm long and 33 cm wide) constructed from an air tank partitioned into two sides. One side was pressurized with a 13 cm opening between the partitions, covered with a Mylar membrane. The unpressurized partition contained a restraint 10 cm from the Mylar membrane into which the mouse was placed. The head was freely moving while a metal tube shielded the body. Compressed air was forced in to the pressurized partition until the Mylar membrane bursts at 22 kPa. The blast wave impacts the test animal inside a foam-lined restraint to reduce blunt impact trauma of the head against the metal tube. The left side of the head was closest the origin of the blast wave. Sham-injured animals were anesthetized in the same way and not subjected to the blast.
Barnes Maze. The Barnes maze test assesses spatial learning and memory. It was conducted on a gray circular surface 91 cm in diameter with 20 holes 5 cm in diameter around the perimeter raised to a height of 90 cm (Stoelting Co.). The surface was brightly lit and open in order to motivate the test animal to learn the location of a dark escape chamber recessed under one of the 20 holes. The maze was placed inside a black circular curtain with four different visual cues (with different shapes and colors) for orientation to the permanent location of the escape chamber. Four days of training comprised of four trials per day were conducted for each animal. […]

Experiment [1] concerns dopaminergic neurons within the substantia nigra. The experiment in a line: MPTP model of Parkinson's disease, TH+ neurons in SNc. Format: in vivo, mice. The settings on record: IP, BID; for rescue of TH+ neurons: 10 mg/kg/d; for dose showing significant neuroprotective activity: 21 d after MPTP. The text has this: The mouse model of neurogenesis involves protecting newborn hippocampal neurons from premature apoptotic cell death. We also sought to determine if P7C3-S243 could protect mature neurons from cell death. […] In the brain, MPTP is oxidized to 1-methyl-4-phenylpyridinium cation (MPP^+), which is selectively transported into dopaminergic neurons within the SNc.^xh Within these cells, MPP^+ acts as a mitochondrial poison, generating a pathology that resembles that of Parkinsonian patients.^xvii Under our assay conditions, treatment with drug was initiated a full 24 hours after the final dose of MPTP. This dosing regime ensures that any effect of the P7C3 class of compounds can be attributed to neuroprotective activity rather than to simply blocking the uptake or metabolism of MPTP.^xviii Mice were administered drug twice daily for 21 days, after which time they were sacrificed by transcardial perfusion. Fixed brains were sectioned through the SNc at […] intervals. Every fourth section was stained with antibodies specific to tyrosine hydroxylase (TH). The TH enzyme catalyzes the oxidation of L-tyrosine to L-DOPA, which is the first step in the biosynthesis of dopamine. Accordingly, the number of TH+ cells provides a quantification of the neuroprotective efficacy of P7C3 derivatives following MPTP exposure. Importantly, all microscopic analyses were performed blinded to treatment group.
To test efficacy of P7C3-S243 in the MPTP model of Parkinson's disease, mice were administered MPTP (30 mg/k/d) for 5 days. On the 6th day, treatment with drug was initiated at the indicated dose (IP, BID, 21 d). In FIG. 3 upper panel, bars indicate number of tyrosine hydroxylase positive cells detected by immunohistochemical staining of the substantia nigra; error bars indicate SEM; asterisks indicate p<0.01 (*), p<0.001 (**) or p<0.0001 (***) relative to the Veh+MPTP group; number of mice in each group are shown within the bars. In FIG. 3 lower panel, representative immunohistochemical pictures of TH staining in the SNc are shown for 5 mg/kg/d treatment groups; bar=[…]. […] Moreover, the enantiomeric specificity observed in the MPTP model of Parkinson's disease mirrored that observed in the mouse model of neurogenesis. […] In this side-by-side experiment, P7C3-S243 appears at least as effective as P7C3-A20, a compound that has proven efficacy in several animal models of neurodegenerative disease.
MPTP Assay. As previously reported,^5 adult male C57BI/6 mice were individually housed for one week and then injected daily for 5 days with 30 mg/kg/day (i.p.) free base MPTP (Sigma). On day 6, 24 hours after receiving the fifth and final dose of MPTP, daily treatment with compound was initiated. Mice received twice daily doses of each compound (or vehicle) for the following 21 days, after which mice were sacrificed by transcardial perfusion with 4% paraformaldehyde. Brains were dissected, fixed overnight in 4% paraformaldehyde, and cryprotected in sucrose for freezing by standard procedures. […] Images were analyzed with a Nikon Eclipse 90i motorized research microscope with Plan Apo lenses coupled with Metamorph Image Acquisition software (Nikon). TH+ neurons were counted with Image J software (NIH) in every section by 2 blinded investigators and results were averaged and multiplied by the sectioning interval to determine the total number of TH+ neurons per SNc.

The mark [2] stands for this setting: 3 and 30 mg/kg/d from 24 hours after injury.
The mark [3] stands for this setting: 3 and 30 mg/kg/d from 36 hours after injury.
Where [4] appears, read: from 48 hours after injury, any dose.
The mark [5] stands for this setting: single enantiomers, 3 mg/kg/d IP.

We go through three compounds from patent publication US9902713B2, “Neuroprotective compounds and use thereof” (BOARD OF REGENTS OF THE UNIVERSITY OF TEXAS SYSTEM, priority 2013, dated 2018).

“Also recorded” adds a separate entry of the source.

For the compound `COc1cccc(NCC(F)Cn2c3ccc(Br)cc3c3cc(Br)ccc32)n1` (racemic) [P7C3-S243, N-(3-(3,6-dibromo-9H-carbazol-9-yl)-2-fluoropropyl)-6-methoxypyridin-2-amine], the “learning (percent latency to escape)” value in the experiment on blast-injured mice (0.3 mg/kg/day from 24 hours after injury) is reported as “learned significantly worse than sham-injury mice”; with blast-injured mice (30 mg/kg/day from 48 hours after injury), “restored normal learning”; in the experiment on blast-injured mice (1, 3, 10 or 30 mg/kg/day from 24 hours after injury), “learned the task as well as sham-injury mice”; in the experiment with blast-injured mice (3 and 30 mg/kg/day from 36 hours after injury), “improved learning”. The “percent quadrant time, probe test” value with blast-injured mice (setting [2]) is listed as “preserved a normal percent quadrant time”; in the experiment on blast-injured mice (setting [3]), “only the higher dose was significantly protective”; in the experiment with blast-injured mice (IP 11 days, dose series, FIG. 23A), “dose-dependently preserved performance”; with blast-injured mice (setting [4]) it was “no protective efficacy”. The “percent target entry, probe test” value with blast-injured mice (setting [2]) is given as “preserved a normal percent target entry”; in the experiment with blast-injured mice (setting [3]), “only the higher dose was significantly protective”; in the experiment on blast-injured mice (IP 11 days, dose series, FIG. 22A), “dose-dependently preserved performance”; in the experiment on blast-injured mice (setting [4]), “no protective efficacy”. The “memory in probe test” value is given as “did not preserve memory” in the experiment with blast-injured mice (IP from 24 hours after injury, 0.3 mg/kg/day) and “did not improve memory” in the experiment with blast-injured mice (IP from 36 hours after injury, 3 mg/kg/day). Besides, the “percent time in escape area, probe test” value with blast-injured mice (IP from 24 hours after injury, 1 mg/kg/day) was “partial, though not statistically significant, protection”; in the experiment on blast-injured mice (IP from 24 hours after injury, 3, 10 and 30 mg/kg/day), “protected; also recorded: complete protection”; in the experiment with blast-injured mice (IP from 36 hours after injury, 30 mg/kg/d) it was “partially efficacious”; with blast-injured mice (IP from 48 hours after injury, any dose (3 or 30 mg/kg/d)), “no protective efficacy”. In addition, the “time in escape quadrant, probe test” value in the experiment with blast-injured mice is “restored the time spent in the escape quadrant to normal levels”. For the same compound, in experiment [1] (21 d), the “rescue of TH+ neurons” value is reported as “over 85%”. Also, the “dose showing significant neuroprotective activity” value in experiment [1] amounted to 1 mg/kg/day.

For `COc1cccc(NCC(F)Cn2c3ccc(Br)cc3c3cc(Br)ccc32)c1` (stereo not shown) [P7C3-A20, N-(3-(3,6-dibromo-9H-carbazol-9-yl)-2-fluoropropyl)-3-methoxyaniline], the “time in escape quadrant, probe test” value in the experiment with blast-injured mice is “restored the time spent in the escape quadrant to normal levels”. Further, the “rescue of TH+ neurons” value in experiment [1] (21 d) is recorded as “around 75%”. Moreover, the “dose showing significant neuroprotective activity” value in experiment [1] was 5 mg/kg/day.

`COc1cccc(NCC(F)Cn2c3ccc(Br)cc3c3cc(Br)ccc32)n1` (single isomer, unassigned; (-)) [(−)-P7C3-S243, (−)-N-(3-(3,6-dibromo-9H-carbazol-9-yl)-2-fluoropropyl)-6-methoxypyridin-2-amine]: the “memory in probe test” value is listed as “preserved memory” in the experiment on blast-injured mice (oral from 24 hours after injury, 3, 10 and 30 mg/kg/day); “did not preserve memory” with blast-injured mice (oral, 1 mg/kg/day). Also, the “learning (percent latency to escape)” value with blast-injured mice (oral, 1 mg/kg/day) is “restored normal learning”; with blast-injured mice (oral, 1, 3, 10 and 30 mg/kg/day) it was “preserved of normal percent latency to escape”; in the experiment on blast-injured mice (single enantiomers, 3 mg/kg/day from 24 hours after injury) it was “learned the task as well as sham-injury mice”. Moreover, the “percent quadrant time, probe test” value is “potent preservation” with blast-injured mice (oral, 3, 10 and 30 mg/kg/day); “completely preserved normal performance” in the experiment on blast-injured mice (setting [5]). Besides, the “percent target entry, probe test” value in the experiment with blast-injured mice (oral, 3, 10 and 30 mg/kg/day) is “potent preservation”; in the experiment on blast-injured mice (setting [5]), “preserved normal performance”. Besides, the “percent time in escape area, probe test” value in the experiment on blast-injured mice (single enantiomers, IP from 24 hours after injury, 3 mg/kg/day) is given as “complete protection”; in the experiment with blast-injured mice (single enantiomers, IP from 24 hours after injury, 3 mg/kg/day, listed as A, 3 mg/kg/day) it was “protective”. The “time in escape quadrant, probe test” value in the experiment on blast-injured mice is “nonsignificant trend”. The “neuroprotection by single enantiomers” value in experiment [1] (21 d, FIG. 3) is recorded as “strongly protective”.
